Structures are written as SMILES. Where only a bound is given, the exact number is not on record here.

T1 sequence (O35433 whole entry): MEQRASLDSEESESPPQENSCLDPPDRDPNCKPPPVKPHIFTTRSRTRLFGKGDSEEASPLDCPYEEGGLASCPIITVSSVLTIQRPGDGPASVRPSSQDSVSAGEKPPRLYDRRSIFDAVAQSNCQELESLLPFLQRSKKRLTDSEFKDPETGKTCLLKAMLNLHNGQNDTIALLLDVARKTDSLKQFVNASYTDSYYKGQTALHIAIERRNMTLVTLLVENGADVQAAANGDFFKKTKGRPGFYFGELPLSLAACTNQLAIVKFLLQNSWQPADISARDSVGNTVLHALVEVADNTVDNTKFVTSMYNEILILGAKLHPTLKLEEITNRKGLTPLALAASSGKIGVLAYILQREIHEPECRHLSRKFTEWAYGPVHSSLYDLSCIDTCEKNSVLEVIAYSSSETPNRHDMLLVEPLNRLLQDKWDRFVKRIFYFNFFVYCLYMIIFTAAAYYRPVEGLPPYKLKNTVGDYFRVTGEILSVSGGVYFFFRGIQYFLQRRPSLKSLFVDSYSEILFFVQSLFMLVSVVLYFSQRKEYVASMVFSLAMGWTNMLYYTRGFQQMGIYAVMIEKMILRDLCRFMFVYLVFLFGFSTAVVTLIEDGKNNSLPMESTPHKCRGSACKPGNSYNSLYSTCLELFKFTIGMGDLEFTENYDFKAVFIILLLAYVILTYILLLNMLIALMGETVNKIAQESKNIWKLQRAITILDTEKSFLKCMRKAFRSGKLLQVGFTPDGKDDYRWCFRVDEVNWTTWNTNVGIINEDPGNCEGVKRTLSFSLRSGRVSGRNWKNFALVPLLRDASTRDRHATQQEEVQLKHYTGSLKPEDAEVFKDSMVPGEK

The target of the first experiment is T1, VR1 (Rattus norvegicus, UniProt O35433). Briefly: Whole-cell patch clamp electrophysiology: inhibition of capsaicin induced current in DRG neurons. It counts as cell-based, rats. The arrangement: Dorsal root ganglion (DRG) neurons were recovered from either neonatal or adult rats; endogenous in cells; host or cells: primary rat dorsal root ganglion neurons. To be noted: DRG neuron; concentration 100 nM; treatment time 20 seconds; 500nM capsaicin; held at -80mV; DRG neurons. An excerpt:
Whole-cell patch clamp electrophysiology
Dorsal root ganglion (DRG) neurons were recovered from either neonatal or adult rats and plated onto poly-D-lysine coated glass coverslips. The plated neurons were transferred into a chamber to allow drug solutions to be added to the cells using a computer-controlled solenoid-valve based perfusion system. The cells were imaged using standard DIC optics. Cells were patched using finely-pulled glass electrodes. Voltage-clamp electrophysiology experiments were carried out using an Axon Instruments Multiclamp amplified controlled by pCLAMP8 software.
The cells were placed into a whole-cell voltage clamp and held at a voltage of –80mV while monitoring the membrane current in gap-free recording mode.
500nM capsaicin was added for 30 seconds as a control. Test compounds at various concentrations were added to the cells for 1 minute prior to a 30 second capsaicin application. Differences between control experiments and drug positive capsaicin experiments were used to determine the efficacy of each test compound. All compounds that inhibited capsaicin induced current greater than 50% were considered positives.
(In general: In patch-clamp work, channel activity is measured electrically.)
Regarding `COc1cc(NC(=O)c2ccc(/C=C/C(C)C)cc2)cc(C(F)(F)F)c1` [Compound 155], testing at 0.1 µM gave an inhibition of 50%.

The experiment is the same for the next values; noted with them: same neurons, capsaicin alone as comparison.
On to `COc1cc(NC(=O)c2ccc(/C=C/C(C)C)cc2)cc(C(F)(F)F)c1` [Compound 155], for which the “calcium influx in neurons, capsaicin in presence of compound vs capsaicin alone (Figure 2)” value is “less calcium influx”.

The target of the next experiment is T1, VR1. The experiment in a line: Calcium imaging assay: inhibition of capsaicin induced calcium influx in DRG neurons (Fura2, microscope). It counts as cell-based. The arrangement: endogenous in cells; host or cells: DRG neurons. The note with it: DRG neuron; concentration 300 nM; treatment time 20 sec; capsaicin 250 nM; DRG neurons. The procedure: VR1 protein is a heat-gated cation channel that […] resulting in neuronal membrane depolarization and elevated intracellular calcium levels. Therefore the functional activity of compounds at the VR1 receptor may be determined by measuring changes in intracellular calcium levels in neurons such as the dorsal root ganglion.
DRG neurons were grown on PDL coated 96-well black-walled plates, in the presence of DMEM medium containing 5% Penstrep, 5% Glutamax, 200 μg/ml hygromycin, 5 μg/ml blasticide and 10% heat inactivated FBS. Prior to assay, cells were loaded with 5 μg/ml Fura2 in normal saline solution at 37° C for 40 minutes. Cells were then washed with normal saline to remove dye before commencement of the experiment.
The plated neurons were transferred into a chamber on the stage of a Nikon eclipse TE300 microscope after which neurons were allowed to attain a stable fluorescence for about 10 minutes before beginning the experiment. The assay consists of two stages, a pretreatment phase followed by a treatment phase. First, a solution of the test compound was added from a multivalve perfusion system to the cells for 1 minute (pretreatment). Immediately following, capsaicin (250 nM) was added in the presence of the test compound (treatment) for a specific period between 20 and 60 seconds.
Fura2 was excited at […] to indicate relative calcium ion concentration. Changes in wavelength measurements were made throughout the course of the experiment. The fluorescence ratio was calculated by dividing fluorescence measured at 340 nm by that at 380 nM. Data was collected using Intelligent Imaging’s Slidebook software. All compounds that inhibited capsaicin induced calcium influx greater than 75% were considered positives.
Fluorescence reflecting calcium ion influx is reduced.
Take `COc1cc(NC(=O)c2ccc(/C=C/C(C)C)cc2)cc(C(F)(F)F)c1` [Compound 155]: the inhibition (commonly the change of the read-out against control, counted positive when it falls) at 0.3 µM is below 75%.

Staying with this experiment, now noted: administered with capsaicin.
As for `COc1cc(NC(=O)c2ccc(/C=C/C(C)C)cc2)cc(C(F)(F)F)c1` [Compound 155], the “fluorescence reflecting calcium ion influx when administered with capsaicin (Figure 1)” value is “reduced”.

The experiment is the same for the next values; noted with them: capsaicin stimulation; class symbols per legend.
With `CC(C)(C)C#Cc1ccc(C(=O)Nc2ccc(C(F)(F)F)cc2)cn1` [Compound 417], the “inhibition of calcium ion influx induced by capsaicin stimulation” value (“inhibition of calcium ion influx induced” for short) was “++++ (compound exhibited 75% or greater inhibition of calcium ion influx induced by capsaicin stimulation)”.

For the compound `CC(C)(C)C#Cc1ccc(C(=O)Nc2ccc(Cl)c(C(F)(F)F)c2)cn1` [Compound 418], the “inhibition of calcium ion influx induced” value was “++++ (compound exhibited 75% or greater inhibition of calcium ion influx induced by capsaicin stimulation)”.

For `CC(C)(C)C#Cc1ccc(C(=O)Nc2ccc(C(C)(C)C)cc2)cn1` [Compound 419], the “inhibition of calcium ion influx induced” value is on record as “++++ (compound exhibited 75% or greater inhibition of calcium ion influx induced by capsaicin stimulation)”.

In the case of `CC(C)c1ccc(NC(=O)c2ccc(C#CC(C)(C)C)nc2)cc1` [Compound 420], the “inhibition of calcium ion influx induced” value is “+++ (compound exhibited 50-75% inhibition of calcium ion influx induced by capsaicin stimulation)”.

For the compound `CCCCc1ccc(NC(=O)c2ccc(C#CC(C)(C)C)nc2)cc1` [Compound 421], the “inhibition of calcium ion influx induced” value was “++ (compound exhibited 25-50% inhibition of calcium ion influx induced by capsaicin stimulation)”.

For the compound `COc1cc(NC(=O)c2ccc(C#CC(C)(C)C)nc2)cc(C(F)(F)F)c1` [Compound 422], the “inhibition of calcium ion influx induced” value is given as “++++ (compound exhibited 75% or greater inhibition of calcium ion influx induced by capsaicin stimulation)”.

Turning to `CC(C)(C)C#Cc1ccc(C(=O)Nc2ccc3c(c2)OCCO3)cn1` [Compound 423], the “inhibition of calcium ion influx induced” value is “++++ (compound exhibited 75% or greater inhibition of calcium ion influx induced by capsaicin stimulation)”.

As for `CC(C)(C)C#Cc1ccc(C(=O)Nc2cccc(C(F)(F)F)c2)cn1` [Compound 424], the “inhibition of calcium ion influx induced” value is listed as “+++ (compound exhibited 50-75% inhibition of calcium ion influx induced by capsaicin stimulation)”.

Take `CC(C)(C)C#Cc1ccc(C(=O)Nc2ccc(OC(F)(F)F)cc2)cn1` [Compound 425]: the “inhibition of calcium ion influx induced” value was “+ (compound exhibited 0-25% inhibition of calcium ion influx induced by capsaicin stimulation)”.

`CC(C)(C)C#Cc1ccc(C(=O)Nc2ccc(S(C)(=O)=O)cc2)cn1` [Compound 427]: the “inhibition of calcium ion influx induced” value was “++ (compound exhibited 25-50% inhibition of calcium ion influx induced by capsaicin stimulation)”.

As to `CC(C)(C)C#Cc1ccc(C(=O)Nc2cccc3cnccc23)cn1` [Compound 428], the “inhibition of calcium ion influx induced” value is listed as “++++ (compound exhibited 75% or greater inhibition of calcium ion influx induced by capsaicin stimulation)”.

Regarding `CC(C)(C)C#Cc1ccc(C(=O)Nc2cnc3ccccc3c2)cn1` [Compound 429], the “inhibition of calcium ion influx induced” value is listed as “++++ (compound exhibited 75% or greater inhibition of calcium ion influx induced by capsaicin stimulation)”.

As for `CCN(CC)c1ccc(NC(=O)c2ccc(C#CC(C)(C)C)nc2)cc1` [Compound 430], the “inhibition of calcium ion influx induced” value is reported as “+ (compound exhibited 0-25% inhibition of calcium ion influx induced by capsaicin stimulation)”.

As to `Cc1ccc(NC(=O)c2ccc(C#CC(C)(C)C)nc2)nc1` [Compound 432], the “inhibition of calcium ion influx induced” value was “+ (compound exhibited 0-25% inhibition of calcium ion influx induced by capsaicin stimulation)”.

With `CC(C)(C)C#Cc1ccc(C(=O)Nc2ccc(C(F)(F)F)cn2)cn1` [Compound 433], the “inhibition of calcium ion influx induced” value was “++ (compound exhibited 25-50% inhibition of calcium ion influx induced by capsaicin stimulation)”.

Take `CC(C)(C)C#Cc1ccc(C(=O)Nc2ccc(Cl)nc2)cn1` [Compound 434]: the “inhibition of calcium ion influx induced” value was “+ (compound exhibited 0-25% inhibition of calcium ion influx induced by capsaicin stimulation)”.

Turning to `COc1ccc(NC(=O)c2ccc(C#CC(C)(C)C)nc2)cn1` [Compound 435], the “inhibition of calcium ion influx induced” value is “+ (compound exhibited 0-25% inhibition of calcium ion influx induced by capsaicin stimulation)”.

Turning to `Cn1ccc2cc(NC(=O)c3ccc(C#CC(C)(C)C)nc3)ccc21` [Compound 437], the “inhibition of calcium ion influx induced” value is “++++ (compound exhibited 75% or greater inhibition of calcium ion influx induced by capsaicin stimulation)”.

For `CC(C)(C)C#Cc1ccc(C(=O)Nc2ccc3c(c2)OCO3)cn1` [Compound 438], the “inhibition of calcium ion influx induced” value was “++++ (compound exhibited 75% or greater inhibition of calcium ion influx induced by capsaicin stimulation)”.

The values above are taken from patent US20050222200A1, “AMIDE DERIVATIVES AS ION CHANNEL LIGANDS AND PHARMACEUTICAL COMPOSITIONS AND METHODS OF USING THE SAME” (Renovis, Inc., priority 2003, published 2005).
